Test results reported in ChEMBL document CHEMBL1201862, “PubChem BioAssay data set” (2004).
Calls of active or inactive are those of the source.

Tests used:
[1] = biological target: Melanin-concentrating hormone receptor 1 (Homo sapiens, UniProt Q99705); assay: Late-stage fluorescence-based counterscreen for antagonists of the G-protein coupled receptor 7 (GPR7): cell-based dose response assay to identify antagonists of the melanin-concentrating hormone receptor 1 (MCHR1). [Related pubchem assays (depositor defined):AID1861, AID1880, AID1952, AID2148, AID2251, AID2257, AID485339]; format: functional;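 also: stimulated with 30 nM MCH peptide agonist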
Sequence of Melanin-concentrating hormone receptor 1 (Q99705 whole entry): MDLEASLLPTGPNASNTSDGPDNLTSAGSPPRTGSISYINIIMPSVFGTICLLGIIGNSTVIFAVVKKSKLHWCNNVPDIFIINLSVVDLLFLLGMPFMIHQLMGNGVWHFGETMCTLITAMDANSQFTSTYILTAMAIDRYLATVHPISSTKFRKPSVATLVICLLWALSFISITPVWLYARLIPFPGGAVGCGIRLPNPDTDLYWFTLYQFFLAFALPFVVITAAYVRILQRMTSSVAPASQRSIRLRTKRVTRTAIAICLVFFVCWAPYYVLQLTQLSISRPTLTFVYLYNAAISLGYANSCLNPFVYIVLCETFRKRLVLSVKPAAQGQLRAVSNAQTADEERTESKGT

[2] = biological target: T1, Neuropeptides B/W receptor type 1 (Homo sapiens, UniProt P48145); assay: GPR7 antagonist potency, late-stage follow-up, cell-based, fluorescence, dose response (AID 463251); format: functional
T1 sequence (P48145 whole entry): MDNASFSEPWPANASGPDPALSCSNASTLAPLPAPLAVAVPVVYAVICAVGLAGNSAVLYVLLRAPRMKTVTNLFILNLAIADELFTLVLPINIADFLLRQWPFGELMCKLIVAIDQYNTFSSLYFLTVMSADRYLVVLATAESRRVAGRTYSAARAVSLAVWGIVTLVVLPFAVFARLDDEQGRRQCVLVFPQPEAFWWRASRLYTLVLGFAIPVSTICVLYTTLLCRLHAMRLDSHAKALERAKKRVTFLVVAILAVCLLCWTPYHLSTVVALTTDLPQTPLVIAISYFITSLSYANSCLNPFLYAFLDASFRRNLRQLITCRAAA

Tumor necrosis factor = Tumor necrosis factor (Homo sapiens, UniProt P01375); assay: TNFa-triggered NF-kB activation inhibitors, SAR follow-up, cell-based, revised (AID 2337); format: functional
Sequence of Tumor necrosis factor (P01375 whole entry, the tested form may be a part): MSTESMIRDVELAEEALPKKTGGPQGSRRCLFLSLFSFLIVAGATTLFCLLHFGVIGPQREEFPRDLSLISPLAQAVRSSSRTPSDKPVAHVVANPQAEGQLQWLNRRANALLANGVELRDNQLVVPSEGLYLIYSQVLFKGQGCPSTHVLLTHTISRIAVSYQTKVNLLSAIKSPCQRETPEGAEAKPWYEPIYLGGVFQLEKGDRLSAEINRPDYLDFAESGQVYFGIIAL

[3] = biological target: T2, Nucleotide-binding oligomerization domain-containing protein 1 (Homo sapiens, UniProt Q9Y239); assay: NOD1 signaling inhibitors, SAR follow-up, revised (AID 2333); format: functional
T2 sequence (Q9Y239 whole entry): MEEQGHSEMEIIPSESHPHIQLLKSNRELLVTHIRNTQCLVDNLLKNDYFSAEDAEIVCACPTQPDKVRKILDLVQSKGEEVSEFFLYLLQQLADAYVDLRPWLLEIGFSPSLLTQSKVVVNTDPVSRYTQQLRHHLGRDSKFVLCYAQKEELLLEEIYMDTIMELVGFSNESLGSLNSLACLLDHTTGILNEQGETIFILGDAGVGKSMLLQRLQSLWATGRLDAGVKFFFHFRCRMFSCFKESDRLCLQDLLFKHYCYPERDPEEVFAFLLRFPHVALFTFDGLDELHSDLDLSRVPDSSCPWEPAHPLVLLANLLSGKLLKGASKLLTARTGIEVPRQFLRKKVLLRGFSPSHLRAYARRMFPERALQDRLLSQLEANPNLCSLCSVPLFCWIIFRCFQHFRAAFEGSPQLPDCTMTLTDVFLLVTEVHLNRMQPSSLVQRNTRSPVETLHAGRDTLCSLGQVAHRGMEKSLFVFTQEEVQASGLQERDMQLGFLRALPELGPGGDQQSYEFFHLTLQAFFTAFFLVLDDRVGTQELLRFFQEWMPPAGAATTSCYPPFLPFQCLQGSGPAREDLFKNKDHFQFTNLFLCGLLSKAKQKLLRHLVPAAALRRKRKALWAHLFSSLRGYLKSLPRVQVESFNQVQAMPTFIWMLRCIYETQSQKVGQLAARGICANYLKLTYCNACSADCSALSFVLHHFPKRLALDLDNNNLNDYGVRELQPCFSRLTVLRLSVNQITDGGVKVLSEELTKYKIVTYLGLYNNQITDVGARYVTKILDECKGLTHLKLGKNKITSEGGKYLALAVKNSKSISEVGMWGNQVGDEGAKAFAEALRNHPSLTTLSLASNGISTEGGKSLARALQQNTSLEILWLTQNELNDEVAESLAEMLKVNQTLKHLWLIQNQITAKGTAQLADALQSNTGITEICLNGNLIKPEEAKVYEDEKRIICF

[4] = biological target: Nucleotide-binding oligomerization domain-containing protein 2 (Homo sapiens, UniProt Q9HC29); assay: PubChem AID 2334; format: functional
Sequence of Nucleotide-binding oligomerization domain-containing protein 2 (Q9HC29 whole entry, the tested form may be a part): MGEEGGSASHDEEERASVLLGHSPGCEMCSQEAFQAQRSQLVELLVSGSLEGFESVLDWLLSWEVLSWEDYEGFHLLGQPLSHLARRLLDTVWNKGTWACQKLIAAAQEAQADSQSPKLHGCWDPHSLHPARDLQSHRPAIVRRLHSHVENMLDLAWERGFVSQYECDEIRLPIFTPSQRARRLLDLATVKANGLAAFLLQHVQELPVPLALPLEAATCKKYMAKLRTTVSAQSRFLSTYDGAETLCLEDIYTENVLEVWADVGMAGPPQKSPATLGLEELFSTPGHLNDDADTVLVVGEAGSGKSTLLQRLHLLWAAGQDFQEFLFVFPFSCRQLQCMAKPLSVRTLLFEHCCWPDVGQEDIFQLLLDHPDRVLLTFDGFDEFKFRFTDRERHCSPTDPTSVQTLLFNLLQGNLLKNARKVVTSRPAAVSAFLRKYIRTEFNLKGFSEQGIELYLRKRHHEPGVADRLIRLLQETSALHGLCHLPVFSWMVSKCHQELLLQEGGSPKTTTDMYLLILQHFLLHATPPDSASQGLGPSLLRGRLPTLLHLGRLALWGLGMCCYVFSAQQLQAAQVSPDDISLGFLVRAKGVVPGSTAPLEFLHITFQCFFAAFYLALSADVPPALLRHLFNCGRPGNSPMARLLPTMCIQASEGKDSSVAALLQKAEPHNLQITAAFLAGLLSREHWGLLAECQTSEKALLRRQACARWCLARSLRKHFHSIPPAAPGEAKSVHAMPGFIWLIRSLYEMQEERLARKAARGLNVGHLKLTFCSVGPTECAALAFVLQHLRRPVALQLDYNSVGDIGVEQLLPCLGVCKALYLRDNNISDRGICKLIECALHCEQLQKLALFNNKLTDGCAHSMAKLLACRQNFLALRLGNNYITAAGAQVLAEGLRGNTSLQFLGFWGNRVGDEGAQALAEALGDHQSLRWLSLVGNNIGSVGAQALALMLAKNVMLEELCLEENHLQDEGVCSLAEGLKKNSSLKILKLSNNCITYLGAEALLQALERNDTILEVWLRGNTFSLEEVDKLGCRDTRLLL

HEK293 = assay: cells; details: Homo sapiens;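 also: cells exposed to compound for 14 hours overnight before viability readout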
[5] = biological target: Aryl hydrocarbon receptor (Homo sapiens, UniProt P35869); assay: Luminescence-based cell-based high throughput dose response assay for activators of the Aryl Hydrocarbon Receptor (AHR). [Related pubchem assays: 2796 (Primary screen (AHR activators in singlicate)), 2845 (Confirmation screen (AHR activators in triplicate)), 434939 (Counterscreen (PXR activators in triplicate)), 2804 (Summary (AHR activators))]; format: ADME
Sequence of Aryl hydrocarbon receptor (P35869 whole entry): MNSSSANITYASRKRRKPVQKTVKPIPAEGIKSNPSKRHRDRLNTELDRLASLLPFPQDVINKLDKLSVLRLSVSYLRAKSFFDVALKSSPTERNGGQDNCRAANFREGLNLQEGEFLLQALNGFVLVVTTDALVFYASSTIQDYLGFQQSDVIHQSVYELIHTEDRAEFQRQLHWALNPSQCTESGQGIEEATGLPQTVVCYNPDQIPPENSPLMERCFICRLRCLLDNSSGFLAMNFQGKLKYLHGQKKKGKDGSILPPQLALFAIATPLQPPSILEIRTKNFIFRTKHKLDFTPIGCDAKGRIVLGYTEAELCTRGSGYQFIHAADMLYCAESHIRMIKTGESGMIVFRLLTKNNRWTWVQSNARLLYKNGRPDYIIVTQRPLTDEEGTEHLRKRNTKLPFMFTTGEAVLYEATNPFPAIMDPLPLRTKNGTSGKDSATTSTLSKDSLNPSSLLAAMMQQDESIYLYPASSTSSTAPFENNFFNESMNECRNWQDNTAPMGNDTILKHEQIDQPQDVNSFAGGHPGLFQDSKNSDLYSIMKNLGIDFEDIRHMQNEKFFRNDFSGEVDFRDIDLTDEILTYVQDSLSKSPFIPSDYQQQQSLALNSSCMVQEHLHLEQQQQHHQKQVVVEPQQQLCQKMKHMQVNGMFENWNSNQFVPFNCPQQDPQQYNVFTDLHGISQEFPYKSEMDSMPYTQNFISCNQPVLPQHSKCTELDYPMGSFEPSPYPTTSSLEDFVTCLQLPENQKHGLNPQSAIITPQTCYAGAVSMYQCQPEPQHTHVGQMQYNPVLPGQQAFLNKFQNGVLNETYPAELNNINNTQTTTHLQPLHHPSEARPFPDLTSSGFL

[6] = biological target: Eukaryotic translation initiation factor 4E (Mus musculus, UniProt P63073); assay: eIF4E–eIF4G protein interaction inhibitors, dose response, biochemical, TR-FRET (AID 855); format: functional;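 also: potency for disrupting eIF4E binding to eIF4GI seen as loss of FRET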
Sequence of Eukaryotic translation initiation factor 4E (P63073 whole entry): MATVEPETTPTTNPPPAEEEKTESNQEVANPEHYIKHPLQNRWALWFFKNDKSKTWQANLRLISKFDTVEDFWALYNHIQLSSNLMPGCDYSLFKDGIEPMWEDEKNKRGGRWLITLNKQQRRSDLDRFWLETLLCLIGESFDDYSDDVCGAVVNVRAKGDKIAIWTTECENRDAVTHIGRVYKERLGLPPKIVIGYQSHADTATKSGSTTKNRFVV

X-box-binding protein 1 = X-box-binding protein 1 (Homo sapiens, UniProt P17861); format: functional, Cricetulus griseus;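 also: confirmatory dose-response counter-screen serving a CHOP assay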
Sequence of X-box-binding protein 1 (P17861 whole entry): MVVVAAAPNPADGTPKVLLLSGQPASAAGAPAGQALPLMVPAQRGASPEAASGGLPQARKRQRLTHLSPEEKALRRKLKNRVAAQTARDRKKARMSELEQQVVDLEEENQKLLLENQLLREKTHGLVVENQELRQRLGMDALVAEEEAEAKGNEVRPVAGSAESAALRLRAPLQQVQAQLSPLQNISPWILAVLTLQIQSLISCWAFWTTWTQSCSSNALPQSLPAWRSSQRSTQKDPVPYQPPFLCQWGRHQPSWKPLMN

[7] = biological target: Beta-2 adrenergic receptor (Homo sapiens, UniProt P07550); assay: beta2AR agonists driving receptor internalization, dose response, cell-based, FAP fluorogen, flow cytometry, cherry pick 1 (AID 588763); format: functional
Caspase-3 = biological target: T3, Caspase-3 (Homo sapiens, UniProt P42574); assay: procaspase-3 activators, dose response, biochemical, absorbance (AID 489014)
T3 sequence (P42574 whole entry): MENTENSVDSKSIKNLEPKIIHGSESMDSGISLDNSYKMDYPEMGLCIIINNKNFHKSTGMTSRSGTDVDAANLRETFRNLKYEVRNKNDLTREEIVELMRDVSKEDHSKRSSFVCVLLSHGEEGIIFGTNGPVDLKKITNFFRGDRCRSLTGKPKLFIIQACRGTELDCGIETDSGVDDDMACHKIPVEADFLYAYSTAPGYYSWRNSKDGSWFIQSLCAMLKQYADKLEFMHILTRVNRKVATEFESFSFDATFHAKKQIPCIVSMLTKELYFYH

Caspase-7 = Caspase-7 (Homo sapiens, UniProt P55210); assay: procaspase-7 activators, dose response, counter-screen for procaspase-3 activator project, biochemical, absorbance (AID 489013)
Sequence of Caspase-7 (P55210 24-198 limits assumed): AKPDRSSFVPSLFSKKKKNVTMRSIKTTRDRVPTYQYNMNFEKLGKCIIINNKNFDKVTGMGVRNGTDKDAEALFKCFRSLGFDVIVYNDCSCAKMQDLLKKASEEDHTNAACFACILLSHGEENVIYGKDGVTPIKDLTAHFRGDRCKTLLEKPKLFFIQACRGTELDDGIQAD
Sequence of Caspase-7 (P55210 207-303 limits assumed): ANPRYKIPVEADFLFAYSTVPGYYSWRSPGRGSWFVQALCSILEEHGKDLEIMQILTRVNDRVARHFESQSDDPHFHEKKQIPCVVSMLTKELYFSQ

[8] = biological target: DNA dC->dU-editing enzyme APOBEC-3G (Homo sapiens, UniProt Q9HC16); assay: Dose Response confirmation of small molecule APOBEC3G DNA Deaminase Inhibitors via a fluorescence-based single-stranded DNA deaminase assay. [Related pubchem assays (depositor defined):AID493012, AID493028]; format: functional
Sequence of DNA dC->dU-editing enzyme APOBEC-3G (Q9HC16 whole entry): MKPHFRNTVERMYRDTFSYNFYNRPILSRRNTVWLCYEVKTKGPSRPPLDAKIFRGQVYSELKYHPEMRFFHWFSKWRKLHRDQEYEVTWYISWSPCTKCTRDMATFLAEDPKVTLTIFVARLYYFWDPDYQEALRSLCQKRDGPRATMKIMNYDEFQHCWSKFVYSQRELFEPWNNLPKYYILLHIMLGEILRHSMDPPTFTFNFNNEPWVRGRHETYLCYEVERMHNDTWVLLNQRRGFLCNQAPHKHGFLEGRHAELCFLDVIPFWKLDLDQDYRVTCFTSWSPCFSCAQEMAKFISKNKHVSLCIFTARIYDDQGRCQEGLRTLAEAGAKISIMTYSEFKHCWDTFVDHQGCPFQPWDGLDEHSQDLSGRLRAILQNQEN

[9] = biological target: T4, Polyadenylate-binding protein 1 (Homo sapiens, UniProt P11940); assay: PABP1 MLLE–PAM2 interaction inhibitors, dose response, miRNA deadenylation inhibitor project, biochemical, fluorescence polarization, Cy5-PAM2 peptide, secondary (AID 602260); format: functional; details: read-out: IC50_Mean
T4 sequence (P11940 whole entry): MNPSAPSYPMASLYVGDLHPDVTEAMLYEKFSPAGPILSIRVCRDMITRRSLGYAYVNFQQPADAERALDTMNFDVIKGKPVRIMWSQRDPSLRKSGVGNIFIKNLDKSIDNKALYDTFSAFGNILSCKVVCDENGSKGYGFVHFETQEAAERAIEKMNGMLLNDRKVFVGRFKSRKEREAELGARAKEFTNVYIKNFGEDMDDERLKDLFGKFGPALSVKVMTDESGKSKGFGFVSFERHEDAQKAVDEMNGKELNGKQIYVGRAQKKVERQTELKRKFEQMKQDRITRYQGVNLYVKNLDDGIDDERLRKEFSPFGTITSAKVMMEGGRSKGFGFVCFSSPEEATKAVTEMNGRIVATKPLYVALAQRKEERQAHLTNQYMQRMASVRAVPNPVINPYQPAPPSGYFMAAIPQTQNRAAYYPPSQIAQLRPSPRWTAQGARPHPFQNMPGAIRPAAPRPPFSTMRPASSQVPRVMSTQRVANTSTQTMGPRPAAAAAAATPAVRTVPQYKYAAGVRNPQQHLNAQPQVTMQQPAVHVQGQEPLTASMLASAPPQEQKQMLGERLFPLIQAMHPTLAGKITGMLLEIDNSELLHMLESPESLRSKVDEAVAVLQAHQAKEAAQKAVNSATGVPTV

[10] = biological target: T4, Polyadenylate-binding protein 1; assay: PABP1 MLLE–PAM2 binding inhibitor potency, dose response, biochemical, fluorescence polarization, FITC-PAM2 peptide (AID 602259); format: functional; details: read-out: IC50_Mean
Bcl-2-like protein 10 = Bcl-2-like protein 10 (Homo sapiens, UniProt Q9HD36); assay: displacers of TR3 peptide from Bcl-B, primary screen, selectivity assay for Bfl-1 inhibitor project, biochemical, fluorescence polarization, FITC-TR3 peptide (AID 748);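 also: fluorescence polarization from a fluorescein-labelled TR3 peptide binding purified Bcl-B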
Sequence of Bcl-2-like protein 10 (Q9HD36 whole entry): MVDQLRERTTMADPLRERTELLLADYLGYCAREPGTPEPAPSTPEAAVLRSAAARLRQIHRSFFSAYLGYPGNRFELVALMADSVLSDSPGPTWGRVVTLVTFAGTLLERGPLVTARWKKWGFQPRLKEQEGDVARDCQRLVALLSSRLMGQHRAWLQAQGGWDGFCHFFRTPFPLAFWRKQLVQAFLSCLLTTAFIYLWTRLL

[11] = biological target: G-protein coupled receptor 35 (Homo sapiens, UniProt Q9HC97); assay: GPR35 antagonists blocking zaprinast-driven arrestin recruitment, primary screen, imaging, U2OS, beta-arrestin-GFP, zaprinast agonist (AID 2058); format: functional;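 also: antagonist potency meaning inhibition of agonist-induced arrestin redistribution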
Sequence of G-protein coupled receptor 35 (Q9HC97 whole entry): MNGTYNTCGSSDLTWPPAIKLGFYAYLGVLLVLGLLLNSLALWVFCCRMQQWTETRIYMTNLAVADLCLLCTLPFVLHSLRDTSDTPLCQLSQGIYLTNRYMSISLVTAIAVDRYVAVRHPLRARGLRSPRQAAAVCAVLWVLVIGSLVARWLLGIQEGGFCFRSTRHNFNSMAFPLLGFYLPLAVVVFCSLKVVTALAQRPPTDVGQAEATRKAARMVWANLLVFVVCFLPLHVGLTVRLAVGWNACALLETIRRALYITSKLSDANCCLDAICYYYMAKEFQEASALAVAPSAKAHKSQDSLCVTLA

[12] = inhibitors of firefly luciferase expression or activity, dose response, H4 neuroglioma cells, luminescence (AID 1990); format: functional, cell-based
[13] = Luminescence Cell-Based Dose Response HTS to Identify Inhibitors of 5'UTR Stem-Loop Driven Prion Protein mRNA Translation in H4 Neuroglioblastoma Cells. [Related pubchem assays: 1827 (Project Summary), 1813 (Primary HTS)]; format: functional
[14] = inhibitors of SNCA 5'UTR-driven reporter translation, confirmation, H4 neuroglioma cells, luminescence (AID 1988); format: functional, cell-based
[15] = biological target: Voltage-dependent T-type calcium channel subunit alpha-1H (Homo sapiens, UniProt O95180); format: functional;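 also: channel activity triggered by adding a high calcium stimulation buffer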

For `COc1cc(F)ccc1Oc1c(Cl)cnn(-c2ccc(C)cc2)c1=O`, the IC50 [1] was 9.5 µM (active) and the IC50 [2] was 9.7 µM (active).

With `Cc1ccc(O)c(N=Cc2cc(Cc3ccccc3)cc([N+](=O)[O-])c2O)c1` the IC50 (Tumor necrosis factor) was > 20 µM (inactive), the IC50 [3] was > 20 µM (inactive) and the IC50 [4] was > 20 µM (inactive). For the same compound, the IC50 (HEK293) was > 20 µM (inactive).

In the case of `O=C(N/N=C/c1c[nH]c2ccccc12)C1COc2ccccc2O1` (stereo not drawn), the EC50 [5] was 5.67 µM (active) and the IC50 [6] was > 64 µM (inactive).

With `CCN(CCO)c1ncnc2c1sc1nc(CC(C)C)c3c(c12)CC(C)(C)OC3` the “Absolute IC50 (XBP1)” value (X-box-binding protein 1) was 10 µM and the EC50 [7] was 0.0454 µM (active).

For `Cc1ccc(-c2cc(C(F)(F)F)c(C#N)c(SCCC#N)n2)o1`, the EC50 (Caspase-3) was > 85.2 µM (inactive) and the EC50 (Caspase-7) was > 85.2 µM (inactive).

For `O=C(Nc1ccc(N2CCOCC2)c(S(=O)(=O)Nc2ccc(Cl)cc2)c1)c1cnccn1`, the IC50 [8] was 51.6 µM (active), the IC50 [9] was > 66 µM (inactive) and the IC50 [10] was > 66 µM (inactive).

With `Cc1cc(C)c(NC(=O)c2cc3c(nc4sccn43)s2)c(C)c1` the IC50 (Bcl-2-like protein 10) was > 100 µM (inactive).

In the case of `CCOc1ccc(COc2c(Cl)cnn(-c3ccc(C)cc3)c2=O)cc1OCC`, the IC50 [2] was > 20 µM (inactive).

For `CN1C=CC2=C(C#N)C(N)C(C#N)(C#N)C(c3ccccc3)C2C1` (stereo not drawn), the IC50 [11] was 1.01 µM (active).

In the case of `CCc1nnc(NC(=O)CSc2nnc(C3CCCCC3)n2-c2cccc(Cl)c2)s1`, the EC50 [12] was > 120 µM (not active), the EC50 [13] was > 120 µM (not active) and the EC50 [14] was > 120 µM (not active). For the same compound, the EC50 [15] was 7.01 µM (active).

For `Cc1ccc(NC(=O)Nc2cccs2)c(Cl)c1`, the IC50 (Bcl-2-like protein 10) was > 100 µM (inactive).
